Measurements published in patent US20100173987A1, “ACTIVE AGENT COMBINATIONS WITH INSECTICIDAL AND ACARICIDAL PROPERTIES” (priority 2006, published 2010).

Columns and labels:
Format in all cases: in vivo
Orius laevigalus = assay: Greenhouse test on bell pepper: number of beneficial species scored
Procedure: (§1) In a greenhouse of a size of 4000 m^2 run in accordance with an IPM program (no insecticide used), bell pepper plants of the cultivar “Requena” on perlite substrates are, about 11 weeks after transplanting, tested comparatively against Western flower thrips (Frankliniella occidentalis) using spiromesifen (240 SC) and the non-beneficial-species-sparing standard formetanate (50 SP) at the stated application rates. Two applications are carried out at an interval of 14 days. Application is by knapsack sprayer. A water application rate of 1000 l/ha is applied.
(§2) Evaluations are carried out 7, 14, 21 and 28 days after the first treatment. As a natural enemy (beneficial species) of the Western flower thrips, use is made of Orius laevigalus from the family of the pirate bugs (Anthochoridae). Evaluation is carried out by counting the number of Western flower thrips on 15 open flowers. The number of beneficial species is also scored.

[1] = system: Frankliniella occidentalis; assay: Greenhouse test on bell pepper against Western flower thrips; conditions: on 15 open flowers
Procedure: as §1, §2

Bemisia tabaci = Bemisia tabaci test (cotton leaves, spray, mirid bugs added); conditions: 0.16 ppm, infested cotton leaves sprayed
Procedure: Solvent: 7 parts by weight of dimethylformamide Emulsifier: 2 parts by weight of alkylaryl polyglycol ether
To produce a suitable preparation of active compound, 1 part by weight of active compound is mixed with the stated amounts of solvent and emulsifier, and the concentrate is diluted with emulsifier-containing water to the desired concentration.
Cotton leaves (Gossypium hirsutum) infested by the whitefly (Bemisia tabacii) are treated by being sprayed with the preparation of active compound at the desired concentration.
After the desired period of time, a defined amount of mirid bugs (Macrolophus caliginosus) is added.
After the desired period of time, the kill of the pest in % is determined. 100% means that all whiteflies have been killed; 0% means that none of the whiteflies have been killed. The determined kill rates are entered into Colby's formula.

[2] = application 0.2 % (50 SP), 7 d after first treatment
[3] = application 0.2 % (50 SP), 14 d after first treatment
[4] = application 0.2 % (50 SP), 21 d after first treatment
[5] = application 0.2 % (50 SP), 28 d after first treatment
[6] = application 0.06 % (240 SC), 14 d after first treatment
[7] = application 0.06 % (240 SC), 21 d after first treatment
[8] = application 0.06 % (240 SC), 28 d after first treatment

SMILES | Number Orius laevigalus larvae + adults (Orius laevigalus; [2]) | Number Orius laevigalus larvae + adults (Orius laevigalus; [3]) | Number Orius laevigalus larvae + adults (Orius laevigalus; [4]) | Number Orius laevigalus larvae + adults (Orius laevigalus; [5]) | Number Frankliniella occidentalis larvae + adults [1, 2] | Number Frankliniella occidentalis larvae + adults [1, 3] | Number Frankliniella occidentalis larvae + adults [1, 4] | Number Frankliniella occidentalis larvae + adults [1, 5] | Kill in % after 14 d (Bemisia tabaci) | Number Orius laevigalus larvae + adults (Orius laevigalus; application 0.06 % (240 SC), 7 d after first treatment) | Number Orius laevigalus larvae + adults (Orius laevigalus; [6]) | Number Orius laevigalus larvae + adults (Orius laevigalus; [7]) | Number Orius laevigalus larvae + adults (Orius laevigalus; [8]) | Number Frankliniella occidentalis larvae + adults ([1]; application 0.06 % (240 SC), 7 d after first treatment, bell pepper greenhouse) | Number Frankliniella occidentalis larvae + adults [1, 6] | Number Frankliniella occidentalis larvae + adults [1, 7] | Number Frankliniella occidentalis larvae + adults [1, 8]
CNC(=O)Oc1cccc(N=CN(C)C)c1 [Formetanate, reference compound] | 0.3 | 0 | 0.3 | 0.3 | 2 | 3.5 | 8 | 18.8 | – | – | – | – | – | – | – | – | –
Cc1cc(C)c(C2=C(OC(=O)CC(C)(C)C)C3(CCCC3)OC2=O)c(C)c1 [Spiromesifen (Ex. I-b-1), Spiromesifen] | – | – | – | – | – | – | – | – | 1.25% | 2.5 | 3.7 | 7.3 | 9 | 16.7 | 13.7 | 9 | 13.7
